Assay in all cases: NCI-60 cell line screen, 48 h
Assay [1] deals with K-562 leukemia.
The subject of assay [2] is SK-MEL-28 melanoma.
For assay [3], the system named is HL-60(TB) leukemia.
Assay [4] concerns 786-0 renal.
Assay [5] has as its system TK-10 renal.
Assay [6] deals with RXF 393 renal.
The subject of assay [7] is SF-539 CNS.
Assay [8] concerns SK-MEL-5 melanoma.

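In this assay, cells in 96-well plates receive the compound at five concentrations for 48 hours. Endpoints are linearly interpolated between the surrounding concentrations. GI50 is the concentration that inhibits growth by half. TGI: concentration producing complete growth inhibition.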 Where only a bound is given, the exact number is not on record here.

With `Cc1cc(C)c2nc3nc(C)cc(C)c3c(N)c2c1`, the GI50 is 3.45 µM in assay [1]; 12.6 µM in assay [2]; 2.74 µM in assay [3]; 4.07 µM in assay [4]; 3.34 µM in assay [5]; 6.64 µM in assay [6]. The results for the GI50 in assay [7] and in assay [8] were 4.15 µM and 3.73 µM, respectively. Moreover, the TGI turned out to be 15.9 µM in assay [1]; 27 µM in assay [2]; 12.9 µM in assay [3]; 17.4 µM in assay [4]; 19.1 µM in assay [5]; 27.5 µM in assay [6]. In addition, the TGI in assay [7] was 14.6 µM; in assay [8], 14.2 µM.
With `CCCCCCCCCCCCCCCCCC(=O)OCC(COC1OC(CS(=O)(=O)O)C(O)C(O)C1O)OC(=O)CCCCCCCCCCCCCCCCC` (stereo unspecified), the TGI in assay [1], in assay [2], in assay [3], in assay [4], in assay [5] and in assay [6] was more than 100 µM each time. Besides, the TGI in assay [7] and in assay [8] was more than 100 µM throughout.
As to `O=S(=O)(CCNCc1ccc(-c2ccc3ncnc(Nc4ccc(OCc5cccc(F)c5)c(Cl)c4)c3c2)o1)c1ccccc1`, the GI50 in assay [1] was more than 25 µM; in assay [2], more than 25 µM; in assay [3] it was more than 25 µM; in assay [4], more than 25 µM; in assay [5] it was more than 13.2 µM; in assay [6], more than 25 µM. For the same molecule, the GI50 in assay [7] is more than 25 µM; in assay [8] it was more than 20.5 µM. Moreover, the TGI in assay [1], in assay [2], in assay [3], in assay [4], in assay [5] and in assay [6] was more than 25 µM throughout. In addition, the TGI in assay [7] and in assay [8] was more than 25 µM throughout.
Turning to `CCN(CC)CCCCNc1ncc2cc(-c3cc(OC)cc(OC)c3)c(NC(=O)NC(C)(C)C)nc2n1`, the GI50 in assay [1] was 2.95 µM; in assay [2], 4.67 µM; in assay [3], 1.99 µM; in assay [4] it was 5.42 µM; in assay [5] it was 6.77 µM; in assay [6], 1.63 µM. Besides, the GI50 was 1.99 µM in assay [7] and 6.19 µM in assay [8]. For the same molecule, the TGI came to 9.37 µM in assay [1]; 12.4 µM in assay [2]; 4.8 µM in assay [3]; 19.3 µM in assay [4]; 21.1 µM in assay [5]; 11.4 µM in assay [6]. The TGI in assay [7] was 7.16 µM; in assay [8], 18 µM.
Consider `S=C(c1ccc2c(c1)OCO2)N1CCN(c2cccc(Cl)c2)CC1`, for which the GI50 is 0.318 µM in assay [1]; 1.02 µM in assay [2]; 0.195 µM in assay [3]; 1.22 µM in assay [4]; 4.55 µM in assay [5]; 10.9 µM in assay [6]. In addition, the GI50 in assay [7] was 1.1 µM; in assay [8], 0.454 µM. For the same molecule, the TGI in assay [1] is more than 41.8 µM; in assay [2] it was more than 100 µM; in assay [3] it was 0.642 µM; in assay [4], more than 59.6 µM; in assay [5], more than 100 µM; in assay [6], 40.8 µM. Besides, the results for the TGI in assay [7] and in assay [8] were 8.13 µM and more than 100 µM, respectively.
Regarding `COC1=CC(c2ccc[nH]2)=N/C1=C\c1[nH]c(C)c(C(C)=O)c1C`, the GI50 in assay [1] is 3.28 µM; in assay [2], 2.46 µM; in assay [3] it was 0.168 µM; in assay [4] it was 0.309 µM; in assay [5], 1.06 µM; in assay [7], 2.15 µM. In addition, the GI50 in assay [8] was 0.768 µM. The TGI in assay [1] was more than 45.4 µM; in assay [2], more than 100 µM; in assay [4] it was 1.62 µM; in assay [5] it was more than 63.5 µM; in assay [7], 54.4 µM; in assay [8], 3.07 µM.
With `O=C(O)c1ccccc1-c1ccccc1C(=O)Nc1ccc2c(c1)[nH]c(=O)c1ccccc12`, the TGI in assay [1], in assay [2], in assay [3], in assay [4], in assay [5] and in assay [6] was more than 100 µM in each case. The TGI in assay [7] and in assay [8] was more than 100 µM throughout.
As to `Cc1ccc(-c2nc(N)c(C#N)c3c2CCOc2c-3ccc3ccccc23)cc1`, the GI50 is 0.0614 µM in assay [1]; 2.48 µM in assay [2]; 0.0891 µM in assay [3]; 0.363 µM in assay [4]; 0.469 µM in assay [5]; 0.266 µM in assay [6]. Further, the GI50 in assay [7] is 0.457 µM; in assay [8], 0.0819 µM. Besides, the TGI in assay [1] is more than 40.8 µM; in assay [2], more than 100 µM; in assay [3], 0.916 µM; in assay [4], 12.7 µM; in assay [5] it was 13.6 µM; in assay [6], 6.29 µM. In addition, the TGI stood at 3.48 µM in assay [7] and 1.14 µM in assay [8].
Turning to `N#CCCSC(=S)C1CCCC1=N` (stereo unspecified), the TGI in assay [1], in assay [2], in assay [3], in assay [4], in assay [5] and in assay [6] was more than 100 µM each time. Also, the TGI in assay [7] and in assay [8] was more than 100 µM throughout.
Consider `CCN(CC)CCCC(Cc1ccccc1)Nc1c2ccc(Cl)cc2nc2ccc(OC)cc12` (stereo unspecified), for which the GI50 was 1.07 µM in assay [1]; 1.84 µM in assay [2]; 2.11 µM in assay [3]; 1.4 µM in assay [4]; 1.68 µM in assay [5]; 1.63 µM in assay [6]. Moreover, in assay [7], the GI50 was 1.7 µM. The TGI in assay [1] is 2.89 µM; in assay [2], 3.59 µM; in assay [3], 4.45 µM; in assay [4] it was 3.34 µM; in assay [5], 3.31 µM; in assay [6], 3.35 µM. Also, the TGI in assay [7] amounted to 3.33 µM.

The values are drawn from PubChem BioAssay (NCI).
